Key:
[1] = system: recurrent and metastatic colorectal cancer patients; test: Clinical association analysis related to survival on subjects treated with anticancer targeted drugs; format: in vivo, human
Description: (§1) The prediction of clinical outcomes of the corresponding patients was based on the NCCN surveillance guidelines (www.nccn.org), and the determination of chemosensitivity to anticancer drugs were based on the RECIST criteria (Therasse et al., J Natl Cancer Inst 2000; 92:205-16).
Association analysis was performed on the SNP genotypes sensitive to the individual anticancer drugs obtained in steps (1) and (2) in colorectal cancer patients whose treatment with the corresponding drugs was terminated.

[2] = system: metastatic cancer patients; test: Clinical association analysis of drug response (RECIST criteria) on subjects treated with anticancer targeted drugs; format: in vivo, human; conditions: homozygous substitution alleles of ANXA11 rs1049550 and homozygous or heterozygous substitution alleles of LINS1 rs11247226; P=0.025, 0.019
Description: as §1

bevacizumab
sensitivity and survival, in words (FIG. 2) ([1]; homozygous or heterozygous substitution alleles of ITGA3 rs2230392 vs homozygous reference alleles): greater sensitivity and longer progression-free survival and overall survival | mean overall survival (OS) ([1]; patients carrying homozygous or heterozygous substitution alleles of ITGA3 rs2230392, P=0.006 vs homozygous reference): 22.5±2.1 months | mean progression-free survival (PFS) ([1]; patients carrying homozygous or heterozygous substitution alleles of ITGA3 rs2230392, P=0.018 vs homozygous reference): 8.7±0.7 months | mean overall survival (OS) ([1]; patients with homozygous reference alleles of ITGA3 rs2230392, P=0.006): 13.4±1.9 months | mean progression-free survival (PFS) ([1]; patients with homozygous reference alleles of ITGA3 rs2230392, P=0.018): 5.7±0.7 months | disease-control response rate, in words [2]: significantly high disease-control response rate

From US20130190200A1, “SNP FOR PREDICTING THE SENSITIVITY TO ANTICANCER TARGETED THERAPEUTIC FORMULATION” (Korea Research Institute of Bioscience and Biotechnology, priority 2010, published 2013)
